Laboratory results from ChEMBL document CHEMBL1201862, “PubChem BioAssay data set” (2004).
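These data come from cells grown in 96-well plates and exposed to compound for 48 hours at five concentrations. Abbreviation: GI50, concentration required for 50% inhibition of growth.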 Active and inactive are the calls of the source. No stated cut-off is given here; in the data, active = GI50 up to about 1.1 µM and inactive = higher.

What was measured:
Assay in all cases: NCI tumour cell line growth inhibition, 48 h
K562 = test system: K562
EKVX = test system: EKVX
HCC 2998 = test system: HCC 2998
TK-10 = test system: TK-10
SNB-19 = test system: SNB-19
DLD-1 = test system: DLD-1
M14 = test system: M14
786-0 = test system: 786-0
OVCAR-8 = test system: OVCAR-8
UACC-257 = test system: UACC-257
A549 = test system: A549
NCI-H522 = test system: NCI-H522
NCI-H460 = test system: NCI-H460
SK-MEL-5 = test system: SK-MEL-5
SK-OV-3 = test system: SK-OV-3
HCT-15 = test system: HCT-15
RXF 393 = test system: RXF 393
COLO 205 = test system: COLO 205
SR = test system: SR

Row | Structure (SMILES) | GI50 (K562) | GI50 (EKVX) | GI50 (HCC 2998) | GI50 (TK-10) | GI50 (SNB-19) | GI50 (DLD-1) | GI50 (M14) | GI50 (786-0) | GI50 (OVCAR-8) | GI50 (UACC-257) | GI50 (A549) | GI50 (NCI-H522) | GI50 (NCI-H460) | GI50 (SK-MEL-5) | GI50 (SK-OV-3) | GI50 (HCT-15) [µM] | GI50 (RXF 393) | GI50 (COLO 205) | GI50 (SR)
1 | COc1cc2c(cc1OC)C1Cc3ccc(OC)c(OC)c3C[N+]1([O-])CC2 (centres undefined) | > 100 µM (inactive) | > 100 µM (inactive) | > 100 µM (inactive) | > 100 µM (inactive) | > 100 µM (inactive) | > 100 µM (inactive) | > 100 µM (inactive) | > 100 µM (inactive) | > 100 µM (inactive) | > 100 µM (inactive) | > 100 µM (inactive) | > 100 µM (inactive) | > 100 µM (inactive) | > 100 µM (inactive) | – | – | – | – | –
2 | COC1=NCc2ccccc2-c2ccccc21 | > 100 µM (inactive) | – | – | > 100 µM (inactive) | > 100 µM (inactive) | > 100 µM (inactive) | – | > 100 µM (inactive) | > 100 µM (inactive) | > 100 µM (inactive) | > 100 µM (inactive) | > 100 µM (inactive) | > 100 µM (inactive) | > 100 µM (inactive) | > 100 µM (inactive) | > 100 | > 100 µM (inactive) | – | –
3 | C=CCn1c(=O)n(CC=C)c(=O)n(CC=C)c1=O | > 100 µM (inactive) | > 100 µM (inactive) | > 100 µM (inactive) | > 100 µM (inactive) | > 100 µM (inactive) | > 100 µM (inactive) | > 100 µM (inactive) | > 100 µM (inactive) | > 100 µM (inactive) | > 100 µM (inactive) | > 100 µM (inactive) | > 100 µM (inactive) | > 100 µM (inactive) | > 100 µM (inactive) | > 100 µM (inactive) | > 100 | > 100 µM (inactive) | > 100 µM (inactive) | –
4 | O=C(n1c2ccccc2c2nnc(S)nc21)C(F)(F)F | > 100 µM (inactive) | > 100 µM (inactive) | > 100 µM (inactive) | 0.962 µM (active) | > 100 µM (inactive) | > 100 µM (inactive) | > 100 µM (inactive) | > 100 µM (inactive) | > 100 µM (inactive) | – | > 100 µM (inactive) | > 100 µM (inactive) | > 100 µM (inactive) | > 100 µM (inactive) | > 100 µM (inactive) | > 100 | 33.4 µM (inactive) | > 100 µM (inactive) | –
5 | CC(C)N(C(=O)C12C3C4C5(C(=O)O)C(C1C35I)C42C(=O)O)C(C)C (centres undefined) | > 100 µM (inactive) | > 100 µM (inactive) | > 100 µM (inactive) | > 100 µM (inactive) | > 100 µM (inactive) | > 100 µM (inactive) | > 100 µM (inactive) | > 100 µM (inactive) | > 100 µM (inactive) | > 100 µM (inactive) | > 100 µM (inactive) | > 100 µM (inactive) | > 100 µM (inactive) | > 100 µM (inactive) | > 100 µM (inactive) | > 100 | – | > 100 µM (inactive) | > 100 µM (inactive)
6 | CC1(C2CCC3(C)OC3C2)CO1 (centres undefined) | > 100 µM (inactive) | > 100 µM (inactive) | > 100 µM (inactive) | > 100 µM (inactive) | > 100 µM (inactive) | > 100 µM (inactive) | > 100 µM (inactive) | > 100 µM (inactive) | > 100 µM (inactive) | > 100 µM (inactive) | > 100 µM (inactive) | > 100 µM (inactive) | > 100 µM (inactive) | > 100 µM (inactive) | > 100 µM (inactive) | – | > 100 µM (inactive) | > 100 µM (inactive) | > 100 µM (inactive)
7 | COc1cccc(/C=N/[N-]C(=S)Nc2ccccc2)c1[O-].O.[Zn+2] | 42 µM (inactive) | 49.1 µM (inactive) | > 100 µM (inactive) | > 100 µM (inactive) | 66.1 µM (inactive) | 29 µM (inactive) | 44.5 µM (inactive) | > 100 µM (inactive) | 35.5 µM (inactive) | 55.5 µM (inactive) | 34.1 µM (inactive) | 19.7 µM (inactive) | 50.9 µM (inactive) | 61.1 µM (inactive) | 44.4 µM (inactive) | 31.6 | 35.9 µM (inactive) | – | –
8 | CCOP(=S)(OCC)Oc1ccc2c(c1)OC(=O)C1(Cl)C2(C)C2(Cl)C(=O)Oc3cc(OP(=S)(OCC)OCC)ccc3C12C (centres undefined) | 27.3 µM (inactive) | 24.3 µM (inactive) | 17.7 µM (inactive) | 25.5 µM (inactive) | 4.8 µM (inactive) | 16.8 µM (inactive) | 17.7 µM (inactive) | 21.1 µM (inactive) | 16.3 µM (inactive) | 17.7 µM (inactive) | 25.5 µM (inactive) | 10.4 µM (inactive) | 17.5 µM (inactive) | 17 µM (inactive) | – | 20.4 | 11.8 µM (inactive) | 19.1 µM (inactive) | –
9 | Cc1cc2c(cn1)C(=O)OCC2 | > 100 µM (inactive) | > 100 µM (inactive) | > 100 µM (inactive) | > 100 µM (inactive) | > 100 µM (inactive) | > 100 µM (inactive) | > 100 µM (inactive) | > 100 µM (inactive) | > 100 µM (inactive) | > 100 µM (inactive) | > 100 µM (inactive) | – | > 100 µM (inactive) | – | > 100 µM (inactive) | – | > 100 µM (inactive) | – | > 100 µM (inactive)
10 | Oc1ccc2ccccc2c1/N=N/c1ccsc1 | > 100 µM (inactive) | – | > 100 µM (inactive) | > 100 µM (inactive) | > 100 µM (inactive) | > 100 µM (inactive) | > 100 µM (inactive) | > 100 µM (inactive) | > 100 µM (inactive) | > 100 µM (inactive) | > 100 µM (inactive) | > 100 µM (inactive) | > 100 µM (inactive) | > 100 µM (inactive) | > 100 µM (inactive) | 76.7 | 53.3 µM (inactive) | > 100 µM (inactive) | > 100 µM (inactive)
11 | Cc1ccc(-n2c3nc(=O)n(C)c(=O)c-3nc3ccccc32)c(C)c1 | 16.4 µM (inactive) | 8.67 µM (inactive) | 5.16 µM (inactive) | 13.2 µM (inactive) | 5.28 µM (inactive) | 15 µM (inactive) | 4.76 µM (inactive) | 5.83 µM (inactive) | 8.18 µM (inactive) | 3.6 µM (inactive) | 4.74 µM (inactive) | 15.4 µM (inactive) | 3.49 µM (inactive) | 4.73 µM (inactive) | 35.1 µM (inactive) | 9.62 | 14.6 µM (inactive) | 3.46 µM (inactive) | –
12 | COc1ccc2c(c1)[n+]([O-])c(/C(C)=N/NC(=O)CC#N)c[n+]2[O-] | > 100 µM (inactive) | > 100 µM (inactive) | > 100 µM (inactive) | > 100 µM (inactive) | > 100 µM (inactive) | 74.6 µM (inactive) | > 100 µM (inactive) | > 100 µM (inactive) | > 100 µM (inactive) | > 100 µM (inactive) | > 100 µM (inactive) | > 100 µM (inactive) | > 100 µM (inactive) | > 100 µM (inactive) | > 100 µM (inactive) | > 100 | > 100 µM (inactive) | 83.4 µM (inactive) | > 100 µM (inactive)
13 | COC(=O)c1nn(C(=N)c2ccc(Cl)cc2)c2c1CCCCC2 | > 100 µM (inactive) | – | > 100 µM (inactive) | > 100 µM (inactive) | > 100 µM (inactive) | > 100 µM (inactive) | > 100 µM (inactive) | > 100 µM (inactive) | – | > 100 µM (inactive) | > 100 µM (inactive) | > 100 µM (inactive) | > 100 µM (inactive) | > 100 µM (inactive) | > 100 µM (inactive) | > 100 | > 100 µM (inactive) | > 100 µM (inactive) | > 100 µM (inactive)
14 | CC12C(=CC(=O)CC1SCCS(=O)(=O)O)C(C#N)=C(N)N2c1ccc(Cl)c(Cl)c1 (centres undefined) | > 100 µM (inactive) | > 100 µM (inactive) | > 100 µM (inactive) | > 100 µM (inactive) | > 100 µM (inactive) | > 100 µM (inactive) | – | > 100 µM (inactive) | > 100 µM (inactive) | > 100 µM (inactive) | > 100 µM (inactive) | 36 µM (inactive) | 10 µM (inactive) | > 100 µM (inactive) | > 100 µM (inactive) | > 100 | 36.8 µM (inactive) | > 100 µM (inactive) | > 100 µM (inactive)
15 | COc1cccc2c1C(=O)c1c(O)c3c(c(O)c1C2=O)CC(O)(C(O)CO)CC3OC1CC(N2CCOCC2)C(O)C(C)O1 (centres undefined) | 0.00412 µM (active) | 0.00386 µM (active) | < 0.001 µM (active) | 0.00377 µM (active) | 0.00404 µM (active) | < 0.001 µM (active) | 0.00295 µM (active) | 0.0277 µM (active) | 0.00182 µM (active) | 0.00338 µM (active) | 0.00108 µM (active) | 0.00273 µM (active) | < 0.001 µM (active) | 0.00223 µM (active) | 0.00362 µM (active) | 0.00353 | 0.0155 µM (active) | 0.00177 µM (active) | 0.00214 µM (active)
16 | O=C(/C=C/c1ccc([N+](=O)[O-])cc1)c1ccc(NCc2nc3ccccc3[nH]2)cc1 | 2.3 µM (inactive) | 7.69 µM (inactive) | 2.61 µM (inactive) | 5.96 µM (inactive) | 3.56 µM (inactive) | 3.97 µM (inactive) | 11.5 µM (inactive) | 3.13 µM (inactive) | 2.68 µM (inactive) | 3.41 µM (inactive) | – | 3.26 µM (inactive) | 2.22 µM (inactive) | 5.18 µM (inactive) | 13.6 µM (inactive) | 2.93 | – | 2.07 µM (inactive) | 3.34 µM (inactive)
